Literature values, collected in patent publication US8552052B2, “Use of diindolylmethane-related indoles for the treatment and prevention of respiratory syncytial virus associated conditions” (BioResponse, L.L.C., priority 2004, dated 2013).

Test system: RSV
Details: monthly intramuscular injections; cited from earlier work

## Palivizumab: IgG1 monoclonal antibody that selectively binds to the RSV surface glycoprotein F
  reduction of the rate of hospitalization of at-risk infants: about 55%
